In ChEMBL document CHEMBL1221402, “Bioactivity-guided isolation of 1,2,3,4,6-Penta-O-galloyl-D-glucopyranose from Paeonia lactiflora roots as a PTP1B inhibitor” (J Nat Prod, 2010) one finds IC50, inhibition and Activity data, which are given here for one compound.

Calls of active or inactive are those of the source. The calls are words filed in the database; no cut-off is given here.

The target of assay [1] is T1, Tyrosine-protein phosphatase non-receptor type 1 (Homo sapiens, UniProt P18031).
T1 sequence (P18031 whole entry): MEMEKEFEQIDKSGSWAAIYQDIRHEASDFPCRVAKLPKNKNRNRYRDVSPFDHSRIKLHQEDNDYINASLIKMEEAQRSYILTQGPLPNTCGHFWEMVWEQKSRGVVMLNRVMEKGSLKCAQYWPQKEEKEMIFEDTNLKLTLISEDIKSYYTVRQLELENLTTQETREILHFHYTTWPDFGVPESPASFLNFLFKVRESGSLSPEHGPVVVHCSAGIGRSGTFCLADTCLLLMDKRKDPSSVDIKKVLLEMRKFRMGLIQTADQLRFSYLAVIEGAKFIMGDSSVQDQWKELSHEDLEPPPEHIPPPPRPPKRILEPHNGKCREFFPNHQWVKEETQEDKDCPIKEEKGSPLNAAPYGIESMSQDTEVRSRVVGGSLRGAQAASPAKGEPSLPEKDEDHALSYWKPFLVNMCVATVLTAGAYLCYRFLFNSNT
Put plainly: Inhibition of human recombinant PTP1B.

Assay [2] concerns the target T2, Tyrosine-protein phosphatase non-receptor type 2 (Homo sapiens, UniProt P17706).
T2 sequence (P17706 whole entry): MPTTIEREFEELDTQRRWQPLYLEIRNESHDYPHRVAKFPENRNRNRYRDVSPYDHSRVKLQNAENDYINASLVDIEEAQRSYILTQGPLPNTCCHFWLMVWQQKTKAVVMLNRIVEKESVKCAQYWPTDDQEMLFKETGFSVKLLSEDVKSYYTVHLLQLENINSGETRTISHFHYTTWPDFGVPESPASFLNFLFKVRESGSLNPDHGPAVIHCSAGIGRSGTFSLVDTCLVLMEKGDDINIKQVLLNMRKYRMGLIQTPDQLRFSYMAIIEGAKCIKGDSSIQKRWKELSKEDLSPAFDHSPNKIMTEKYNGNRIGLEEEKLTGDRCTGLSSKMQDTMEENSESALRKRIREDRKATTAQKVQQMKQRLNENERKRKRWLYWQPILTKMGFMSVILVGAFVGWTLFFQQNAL
The assay can be described thus: Inhibition of TCPTP.

For assay [3], the target named is Receptor-type tyrosine-protein phosphatase F (Homo sapiens) (UniProt P10586). Put plainly: Inhibition of LAR at <50 uM.
Receptor-type tyrosine-protein phosphatase F (Homo sapiens), sequence (P10586 whole entry): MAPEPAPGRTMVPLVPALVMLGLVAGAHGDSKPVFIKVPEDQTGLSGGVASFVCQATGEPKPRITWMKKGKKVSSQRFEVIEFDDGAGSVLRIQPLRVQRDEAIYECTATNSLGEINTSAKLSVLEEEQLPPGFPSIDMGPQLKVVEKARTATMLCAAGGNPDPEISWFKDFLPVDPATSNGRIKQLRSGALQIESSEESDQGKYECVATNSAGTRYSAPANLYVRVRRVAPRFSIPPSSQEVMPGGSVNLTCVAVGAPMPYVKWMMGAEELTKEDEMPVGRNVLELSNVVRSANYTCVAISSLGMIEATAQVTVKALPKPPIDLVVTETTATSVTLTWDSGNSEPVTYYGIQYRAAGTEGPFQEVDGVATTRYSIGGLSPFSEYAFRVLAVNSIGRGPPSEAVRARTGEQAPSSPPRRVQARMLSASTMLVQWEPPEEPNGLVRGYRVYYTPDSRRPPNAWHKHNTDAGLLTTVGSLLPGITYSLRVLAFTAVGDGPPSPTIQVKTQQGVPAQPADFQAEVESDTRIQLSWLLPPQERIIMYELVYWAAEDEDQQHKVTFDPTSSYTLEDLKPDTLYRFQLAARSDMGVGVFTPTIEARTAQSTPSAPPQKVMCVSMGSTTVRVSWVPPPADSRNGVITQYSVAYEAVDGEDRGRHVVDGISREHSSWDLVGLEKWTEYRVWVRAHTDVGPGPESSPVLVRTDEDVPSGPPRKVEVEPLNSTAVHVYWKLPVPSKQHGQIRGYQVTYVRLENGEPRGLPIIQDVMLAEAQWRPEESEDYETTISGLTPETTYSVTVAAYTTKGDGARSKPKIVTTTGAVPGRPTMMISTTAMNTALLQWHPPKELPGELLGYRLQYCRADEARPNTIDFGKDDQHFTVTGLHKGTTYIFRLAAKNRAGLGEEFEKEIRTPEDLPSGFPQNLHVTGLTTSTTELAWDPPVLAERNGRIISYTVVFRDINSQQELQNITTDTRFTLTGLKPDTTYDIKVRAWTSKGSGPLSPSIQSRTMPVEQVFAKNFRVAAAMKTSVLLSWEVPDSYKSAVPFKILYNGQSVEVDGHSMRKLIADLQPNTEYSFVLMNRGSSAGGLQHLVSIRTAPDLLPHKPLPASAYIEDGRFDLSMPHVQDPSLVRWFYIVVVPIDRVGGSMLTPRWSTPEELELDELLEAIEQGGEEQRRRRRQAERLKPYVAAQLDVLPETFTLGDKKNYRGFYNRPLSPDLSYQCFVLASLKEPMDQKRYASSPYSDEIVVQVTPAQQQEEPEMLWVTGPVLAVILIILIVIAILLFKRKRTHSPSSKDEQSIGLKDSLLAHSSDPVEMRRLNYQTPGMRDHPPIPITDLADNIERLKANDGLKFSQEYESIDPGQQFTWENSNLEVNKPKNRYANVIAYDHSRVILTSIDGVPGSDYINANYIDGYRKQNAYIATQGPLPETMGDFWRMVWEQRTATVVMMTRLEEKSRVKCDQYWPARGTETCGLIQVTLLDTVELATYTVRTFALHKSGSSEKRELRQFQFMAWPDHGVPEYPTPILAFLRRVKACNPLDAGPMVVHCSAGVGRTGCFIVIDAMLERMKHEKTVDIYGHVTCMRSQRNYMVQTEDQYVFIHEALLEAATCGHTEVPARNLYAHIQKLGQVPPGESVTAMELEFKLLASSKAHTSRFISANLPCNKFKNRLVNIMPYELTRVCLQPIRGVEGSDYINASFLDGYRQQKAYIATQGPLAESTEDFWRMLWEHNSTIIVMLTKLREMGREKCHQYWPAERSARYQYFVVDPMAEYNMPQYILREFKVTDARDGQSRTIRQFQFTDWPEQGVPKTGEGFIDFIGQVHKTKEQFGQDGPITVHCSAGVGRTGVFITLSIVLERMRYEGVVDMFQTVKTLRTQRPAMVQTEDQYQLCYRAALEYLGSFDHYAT
Assay [4] has as its target Insulin receptor (Homo sapiens) (UniProt P06213). The assay can be described thus: Induction of IR phosphorylation in insulin-stimulated starved human HCC-1.2 cells at 10 uM pretreated 2 hrs before insulin challenge by Western blot analysis.
The target in assay [5] is T3, Tyrosine-protein phosphatase non-receptor type 11 (Homo sapiens) (UniProt Q06124).
T3 sequence (whole entry): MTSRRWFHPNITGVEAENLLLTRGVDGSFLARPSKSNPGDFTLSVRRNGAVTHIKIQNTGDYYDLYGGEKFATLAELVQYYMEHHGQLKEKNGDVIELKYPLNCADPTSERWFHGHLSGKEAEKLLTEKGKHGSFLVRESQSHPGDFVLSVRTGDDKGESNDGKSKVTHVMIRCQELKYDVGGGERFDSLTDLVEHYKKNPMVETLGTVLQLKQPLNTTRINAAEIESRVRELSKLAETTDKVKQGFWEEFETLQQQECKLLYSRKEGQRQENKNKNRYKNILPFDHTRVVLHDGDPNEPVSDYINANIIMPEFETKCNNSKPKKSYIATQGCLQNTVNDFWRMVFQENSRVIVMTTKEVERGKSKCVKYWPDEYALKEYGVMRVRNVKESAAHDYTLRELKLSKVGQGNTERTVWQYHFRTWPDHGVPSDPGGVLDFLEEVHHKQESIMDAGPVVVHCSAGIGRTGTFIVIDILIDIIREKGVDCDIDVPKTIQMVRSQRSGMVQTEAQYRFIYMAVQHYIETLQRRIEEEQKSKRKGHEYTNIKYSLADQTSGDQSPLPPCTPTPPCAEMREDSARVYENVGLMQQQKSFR
The assay can be described thus: Inhibition of SHP-2 at <50 uM.

Insulin receptor (Homo sapiens), sequence (P06213 28-758 limits assumed): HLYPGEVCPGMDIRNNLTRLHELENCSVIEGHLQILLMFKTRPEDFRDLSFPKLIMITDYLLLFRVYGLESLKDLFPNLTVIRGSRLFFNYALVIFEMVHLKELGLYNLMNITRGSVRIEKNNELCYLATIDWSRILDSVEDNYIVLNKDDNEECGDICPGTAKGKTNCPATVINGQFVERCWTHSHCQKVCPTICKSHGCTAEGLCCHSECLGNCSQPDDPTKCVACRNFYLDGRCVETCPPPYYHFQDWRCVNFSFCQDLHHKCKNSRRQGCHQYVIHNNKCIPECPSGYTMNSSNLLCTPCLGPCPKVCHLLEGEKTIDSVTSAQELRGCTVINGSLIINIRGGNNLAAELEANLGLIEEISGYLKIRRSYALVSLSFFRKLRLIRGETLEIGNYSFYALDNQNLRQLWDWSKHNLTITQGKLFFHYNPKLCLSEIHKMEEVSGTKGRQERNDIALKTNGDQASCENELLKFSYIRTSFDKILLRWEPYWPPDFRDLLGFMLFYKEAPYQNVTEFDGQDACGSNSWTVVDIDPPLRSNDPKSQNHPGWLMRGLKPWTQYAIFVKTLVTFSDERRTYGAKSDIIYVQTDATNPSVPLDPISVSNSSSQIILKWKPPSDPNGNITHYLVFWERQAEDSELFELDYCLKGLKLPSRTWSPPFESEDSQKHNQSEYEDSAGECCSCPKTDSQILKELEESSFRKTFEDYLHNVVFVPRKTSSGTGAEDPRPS
Insulin receptor (Homo sapiens), sequence (P06213 763-1382 limits assumed): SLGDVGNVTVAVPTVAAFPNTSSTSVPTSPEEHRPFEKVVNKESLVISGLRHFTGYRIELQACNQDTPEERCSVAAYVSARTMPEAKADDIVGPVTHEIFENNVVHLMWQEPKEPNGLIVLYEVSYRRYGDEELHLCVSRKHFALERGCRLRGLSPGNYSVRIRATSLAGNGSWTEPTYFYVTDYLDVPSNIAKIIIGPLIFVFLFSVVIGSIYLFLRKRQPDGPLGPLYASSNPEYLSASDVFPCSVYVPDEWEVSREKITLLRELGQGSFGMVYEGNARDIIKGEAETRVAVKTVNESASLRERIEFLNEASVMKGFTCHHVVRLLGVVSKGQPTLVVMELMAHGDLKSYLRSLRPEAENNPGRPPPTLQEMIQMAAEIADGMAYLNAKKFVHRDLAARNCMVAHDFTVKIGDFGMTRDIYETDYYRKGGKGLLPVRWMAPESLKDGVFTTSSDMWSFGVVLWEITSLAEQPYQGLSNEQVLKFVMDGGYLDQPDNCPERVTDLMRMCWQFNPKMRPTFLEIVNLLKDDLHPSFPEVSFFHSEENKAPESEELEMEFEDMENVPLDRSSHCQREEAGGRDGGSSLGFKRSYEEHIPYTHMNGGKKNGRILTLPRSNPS

For `O=C(OC[C@H]1O[C@H](OC(=O)c2cc(O)c(O)c(O)c2)[C@H](OC(=O)c2cc(O)c(O)c(O)c2)[C@@H](OC(=O)c2cc(O)c(O)c(O)c2)[C@@H]1OC(=O)c1cc(O)c(O)c(O)c1)c1cc(O)c(O)c(O)c1`, the IC50 amounted to 4800 nM in assay [1] and 70 nM in assay [2]. Also, the inhibition entry in assay [3] and in assay [5] was “inactive” in each case. For the same compound, in assay [4], the result was Active.
